# Test results published in patent US20250289827A1, “MORPHIC FORMS OF A MUTANT BRAF DEGRADER AND METHODS OF MANUFACTURE THEREOF” (C4 THERAPEUTICS, INC., priority 2022, published 2025).
# Read-outs that look alike come from different tables or passages of the source.
# What was measured:
# [1] = Approximate solubility at 25° C. and 50° C. (visual); assay type: physicochemical
# Method: About 5 mg of Compound 1 Form A was weighed to a 2 mL glass vial. 20 μL aliquots of each solvent were added to dissolve the drug substance at 25° C. About 10 mg of Compound 1 Form A was weighed to a 2 mL glass vial. 20 μL aliquots of each solvent were added to dissolve the drug substance at 50° C. Vortex and sonication were applied to assist dissolution. Maximum volume of each solvent added was 1 mL. Approximate solubility was determined by visual observation.
# About 5 mg of Compound 1 Form B was weighed to a 2 mL glass vial. 20 μL aliquots of each solvent were added to dissolve the drug substance at 25° C. About 10 mg of Compound 1 Form B was weighed to a 2 mL glass vial. […] aliquots of each solvent were added to dissolve the drug substance at 50° C. Vortex and sonication were applied to assist dissolution. Maximum volume of each solvent added is 1 mL. Approximate solubility was determined by visual observation.
# [2] = Salt screening by anti-solvent addition; assay type: physicochemical; settings: Choline; MeOH/0.2 mL, anti-solvent MTBE/0.3 mL
smiles,measurement,setting,value
CCN(C)S(=O)(=O)Nc1ccc(F)c(Oc2ccc3ncn([C@H]4COC5(CCN(C(=O)CC6(O)CCN(c7cc8c(cc7F)c(N7CCC(=O)NC7=O)nn8C)CC6)CC5)C4)c(=O)c3c2)c1C#N [Compound 1 Form A],solubility,"[1]; 1,4-Dioxane, 25° C., listed as Form A",>250000 µg/mL
same,solubility,"[1]; 1,4-Dioxane, 50° C., listed as Form A",>500000 µg/mL
same,solubility,"[1]; 2-MeTHF, 25 °C, organic solvent or mixture, thermodynamic from solid, 2-MeTHF, 25° C., read-out: Solubility",5000 to 7000 µg/mL
same,solubility,"[1]; 2-MeTHF, 50 °C, organic solvent or mixture, thermodynamic from solid, 2-MeTHF, 50° C., read-out: Solubility",< 10000 µg/mL
same,solubility,"[1]; Acetone, 25° C., listed as Form A",13000 to 17000 µg/mL
same,solubility,"[1]; Acetone, 50° C., listed as Form A",25000 to 29000 µg/mL
same,solubility,"[1]; Acetonitrile, 25° C., listed as Form A",13000 to 17000 µg/mL
same,solubility,"[1]; Acetonitrile, 50° C., listed as Form A",25000 to 33000 µg/mL
same,solubility,"[1]; DCM, 25° C., listed as Form A",>250000 µg/mL
same,solubility,"[1]; DMSO, 25 °C, organic solvent or mixture, thermodynamic from solid, DMSO, 25° C., read-out: Solubility",≥ 250000 µg/mL
same,solubility,"[1]; DMSO, 50 °C, organic solvent or mixture, thermodynamic from solid, DMSO, 50° C., read-out: Solubility",> 500000 µg/mL
same,solubility,"[1]; MTBE, 25 °C, organic solvent or mixture, thermodynamic from solid, MTBE, 25° C., read-out: Solubility",< 5000 µg/mL
same,solubility,"[1]; MTBE, 50 °C, organic solvent or mixture, thermodynamic from solid, MTBE, 50° C., read-out: Solubility",< 10000 µg/mL
same,solubility,"[1]; THF, 25° C., listed as Form A",>250000 µg/mL
same,solubility,"[1]; THF, 50° C., listed as Form A",>500000 µg/mL
same,solubility,"[1]; ethanol, 25 °C, organic solvent or mixture, thermodynamic from solid, Ethanol, 25° C., read-out: Solubility",< 5000 µg/mL
same,solubility,"[1]; ethanol, 50 °C, organic solvent or mixture, thermodynamic from solid, Ethanol, 50° C., read-out: Solubility",< 10000 µg/mL
same,solubility,"[1]; ethyl acetate, 25 °C, organic solvent or mixture, thermodynamic from solid, Ethyl acetate, 25° C., read-out: Solubility",< 5000 µg/mL
same,solubility,"[1]; ethyl acetate, 50 °C, organic solvent or mixture, thermodynamic from solid, Ethyl acetate, 50° C., read-out: Solubility",< 10000 µg/mL
same,solubility,"[1]; heptane, 25 °C, organic solvent or mixture, thermodynamic from solid, Heptane, 25° C., read-out: Solubility",< 5000 µg/mL
same,solubility,"[1]; heptane, 50 °C, organic solvent or mixture, thermodynamic from solid, Heptane, 50° C., read-out: Solubility",< 10000 µg/mL
same,solubility,"[1]; isopropanol, 25 °C, organic solvent or mixture, thermodynamic from solid, Isopropanol, 25° C., read-out: Solubility",< 5000 µg/mL
same,solubility,"[1]; isopropanol, 50 °C, organic solvent or mixture, thermodynamic from solid, Isopropanol, 50° C., read-out: Solubility",< 10000 µg/mL
same,solubility,"[1]; isopropyl acetate, 25 °C, organic solvent or mixture, thermodynamic from solid, Isopropyl acetate, 25° C., read-out: Solubility",< 5000 µg/mL
same,solubility,"[1]; isopropyl acetate, 50 °C, organic solvent or mixture, thermodynamic from solid, Isopropyl acetate, 50° C., read-out: Solubility",< 10000 µg/mL
same,solubility,"[1]; methanol, 25 °C, organic solvent or mixture, thermodynamic from solid, Methanol, 25° C., read-out: Solubility",~3000 µg/mL
same,solubility,"[1]; methanol, 50 °C, organic solvent or mixture, thermodynamic from solid, Methanol, 50° C., read-out: Solubility",5000 to 10000 µg/mL
same,solubility,"[1]; methyl ethyl ketone, 25 °C, organic solvent or mixture, thermodynamic from solid, Methyl ethyl ketone, 25° C., read-out: Solubility",14000 to 17000 µg/mL
same,solubility,"[1]; methyl ethyl ketone, 50 °C, organic solvent or mixture, thermodynamic from solid, Methyl ethyl ketone, 50° C., read-out: Solubility",25000 to 33000 µg/mL
same,solubility,"[1]; toluene, 25 °C, organic solvent or mixture, thermodynamic from solid, Toluene, 25° C., read-out: Solubility",< 5000 µg/mL
same,solubility,"[1]; toluene, 50 °C, organic solvent or mixture, thermodynamic from solid, Toluene, 50° C., read-out: Solubility",< 10000 µg/mL
same,solubility,"[1]; water, 25 °C, water, thermodynamic from solid, Water, 25° C., read-out: Solubility",< 5000 µg/mL
same,solubility,"[1]; water, 50 °C, water, thermodynamic from solid, Water, 50° C., read-out: Solubility",< 10000 µg/mL
same,Notes,[2],Sticky material
